“Also recorded” adds a separate entry of the source.

The subject of series [1] is photoreceptors (rods and cones) of rd10 mouse. Particulars: cited from earlier work.
The next series deals with cones of PDE-β−/− mice. The series can be described thus: Cone survival in PDE-β−/− mice after systemic insulin or streptozotocin treatment (lacZ staining of retinal flat mounts). In kind it is in vivo, mouse. To be noted: for cone survival: 4 weeks of treatment from PW3, read at PW7, versus uninjected control; for cone survival after prolonged treatment: 7 weeks of treatment from PW3, read at PW10, versus untreated. The procedure: (§1) Rapamycin, Streptozotocin and Insulin treatments were performed as follows. Rapamycin was diluted to 10 mg/ml in ethanol. The stock was diluted to 0.015 mg/ml in drinking water over a period of 2 weeks. A single intraperitoneal injection of 150 μl (12 mg/ml in 0.1M citric acid, ph4.5) of Streptozotocin was injected at postnatal day (P) 21. Insulin was injected intraperitoneally daily starting at P21. The concentration was increased weekly such that the first week, 10 U/kg body weight, the second 15 U/kg, the third 20 U/kg and fourth 30 U/kg body weight, were injected. In the treatment that lasted 7 weeks 30 U/kg body weight were injected for the remaining 3 weeks. Blood glucose levels were measured by collecting a drop of blood from the tail directly onto a test strip from TrueTrack smart system (CVS pharmacy). Eye bleeds were avoided due to the fact that cell survival in the retina was being assayed.
Quantification of cone survival was performed as follows. The colors of the bright light image were inverted and processed with Imaris software (Bitplane Inc) to calculate the percentage of blue surface area versus the total retinal surface area (see also FIG. 17). A minimum of 8 retinae per treatment, and for the control, were analyzed. P-values were calculated by the student's t-test.

The subject of another series is HIF-1α. The series can be described thus: HIF-1α immunofluorescence on retinal flat mounts of treated PDE-β−/− mice. Format: in vivo, mouse. Particulars: PDE-β−/− mice treated for 4 weeks. As for the experimental part: as §1, with “Eye bleeds were avoided due to the fact that cell survival in the retina was being assayed.” left out
(§2) Whole mount and section antibody staining were performed as previously (Punzo, C. & Cepko, C. L. (2008) Dev Dyn 237, 1034-42) described with the following modifications. […] Time points analyzed for the rod and cone death kinetics (P: postnatal day; PW: postnatal week): PDE-β−/−: P10-P20 daily, PW3-10 weekly, PW 12, PW15, PW18, PW45; PDE-γ-KO: P10-P20 daily, PW3-PW10 weekly, PW15, PW25, PW45; Rho-KO: PW4-PW8 weekly, PW10, PW11, PW17, PW20, PW25, PW27, PW31, PW34, PW37, PW45, PW55, PW80; P23H: PW5, PW10, PW16, PW25, PW30, PW35, PW40, PW65, PW70, PW75, PW80, PW85.

For another series, the system named is p*-mTOR in dorsal cones. The series can be described thus: Retinal explant culture of wild type mice, p*-mTOR immunofluorescence. Format: cell-based, mouse. To be noted: wild type retinal explants, 4 hours, absence of glucose, leucine added at 200 μM. The procedure: Retinal explant cultures: The retina was dissected free from other ocular tissues in DMEM, and then incubated in conditions according to the chart in FIG. 10a. Regular DMEM was at 4.5 g/L glucose, low glucose was at 1 g/L, leucine was added at 200 μM and FCS at 10%. Incubation was performed for 4 h and the retinae were fixed and processed for antibody staining as described below.
as §2, with “modifications. Antibody staining for LAMP-2: Triton was replaced with 0.01% Saponin. Antibody staining for p*-mTOR and p*-S6: PBS was replaced by TBS in every step of the procedure.” for “modifications.”

In the case of proinsulin, in series [1] (mice treated with proinsulin), the hyperglycemia result is given as “did not develop hyperglycemia”. The photoreceptor death entry in series [1] (rd10 mouse, constitutive expression, rods and cones) is “delays photoreceptor death”.
For the molecule insulin, in the series on cones of PDE-β−/− mice, the cone survival entry is listed as “improved cone survival; also recorded: prolonged cone survival” and the “cone survival after prolonged treatment” value is on record as “did not show any significant improvement of cone survival; also recorded: no significant difference in cone survival”. For the same molecule, the “upregulation of HIF-1α in cones” value in the series on HIF-1α is on record as “did not show the upregulation of HIF-1α; also recorded: prevented the upregulation of HIF-1α”.
With `CN(N=O)C(=O)N[C@H]1C(O)O[C@H](CO)[C@@H](O)[C@@H]1O` (mixture of isomers) [streptozotocin], in the series on cones of PDE-β−/− mice, the cone survival result is reported as “decrease in cone survival” and the “cone survival after prolonged treatment” value is on record as “no significant difference in cone survival”.
As for `CC(C)C[C@H](N)C(=O)O` [leucine], the “dorsal p*-mTOR with increased leucine” value in the series with p*-mTOR in dorsal cones is “abolished”.

The values above are taken from patent US20110318424A1, “METHODS FOR PROLONGING VIABILITY OF CONE CELLS USING MODULATORS OF THE MAMMALIAN TARGET OF RAPAMYCINE (mTOR)” (PRESIDENT AND FELLOWS OF HARVARD COLLEGE, priority 2008, published 2011).
